Laboratory results taken from patent US8541411B2, “Benzimidazole derivatives as PI3 kinase inhibitors” (GlaxoSmithKline LLC, priority 2010, dated 2013).

Tests used:
[1] = tested on: BT549; assay: Anchorage Independent Soft Agar Tumor Growth Assay, BT549; type: cell-based; settings: percent of DMSO-treated control at Ymin plateau
Experimental: Cells were seeded into either a T-75 or a T-175 flask 3-4 days prior to 96-well assay plating such that the flasks were approximately 70-80% confluent of the time of harvest. Cells were harvested using 0.25% trypsin-EDTA (Invitrogen #25200056). Trypan Blue exclusion staining was used to determine cell number. Viable cells were plated in clear, flat bottom 96-well plates (BD #353075) under anchorage independent conditions at 2,000-10,000 cells per well depending on the cell line. To generate anchorage independent growth conditions, a 5% agar stock solution in water was made and autoclaved to melt and sterilize. From the 5% agar solution, a 0.6% agar/media+10% fetal bovine serum (FBS) solution was made to generate a bottom agar layer in the plates to prevent cell attachment. Seventy five microliters per well of the 0.6% agar-media solution was added to the plates. […] The next day one plate of cells was processed at the time of compound addition to quantify the starting number of cells (T=0 or T0). […] Following the 6-day incubation, 20 μl of Alamar Blue (Invitrogen #DAL1100) was added to the cells, incubated at 5% CO2 and 37° C. for 6 hours and the plates read on a Spectramax (Gemini EM) at 530 nm (excitation) and 590 nm (emission) with the auto cut-off disabled. […]

[2] = tested on: WM-115; assay: Anchorage Independent Soft Agar Tumor Growth Assay, WM-115; type: cell-based; settings: percent of DMSO-treated control at Ymin plateau
Experimental: (§1) Twenty-two Phosphatase and Tensin Homolog (PTEN) wild-type or PTEN deficient tumor cell lines were cultured generally according to instructions supplied by cell culture supplier American Type Culture Collection, Manassas, Va., with 10% fetal bovine serum at 5% CO2 and 37° C. Cells were seeded into either a T-75 or a T-175 flask 3-4 days prior to 96-well assay plating such that the flasks were approximately 70-80% confluent of the time of harvest. Cells were harvested using 0.25% trypsin-EDTA (Invitrogen #25200056). Trypan Blue exclusion staining was used to determine cell number. Viable cells were plated in clear, flat bottom 96-well plates (BD #353075) under anchorage independent conditions at 2,000-10,000 cells per well depending on the cell line. To generate anchorage independent growth conditions, a 5% agar stock solution in water was made and autoclaved to melt and sterilize. […] The next day one plate of cells was processed at the time of compound addition to quantify the starting number of cells (T=0 or T0). […] Following the 6-day incubation, 20 μl of Alamar Blue (Invitrogen #DAL1100) was added to the cells, incubated at 5% CO2 and 37° C. for 6 hours and the plates read on a Spectramax (Gemini EM) at 530 nm (excitation) and 590 nm (emission) with the auto cut-off disabled. […]

[3] = tested on: C32; assay: Anchorage Independent Soft Agar Tumor Growth Assay, C32; type: cell-based; settings: percent of DMSO-treated control at Ymin plateau
Experimental: as §1

[4] = tested on: SW1783; assay: Anchorage Independent Soft Agar Tumor Growth Assay, SW1783; type: cell-based; settings: percent of DMSO-treated control at Ymin plateau
Experimental: as §1

[5] = tested on: UM-UC-3; assay: Anchorage Independent Soft Agar Tumor Growth Assay, UM-UC-3; type: cell-based; settings: percent of DMSO-treated control at Ymin plateau
Experimental: as §1

[6] = tested on: SW1088; assay: Anchorage Independent Soft Agar Tumor Growth Assay, SW1088; type: cell-based; settings: percent of DMSO-treated control at Ymin plateau
Experimental: as §1

[7] = tested on: H4; assay: Anchorage Independent Soft Agar Tumor Growth Assay, H4; type: cell-based; settings: percent of DMSO-treated control at Ymin plateau
Experimental: as §1

[8] = tested on: CHL-1; assay: Anchorage Independent Soft Agar Tumor Growth Assay, CHL-1; type: cell-based; settings: percent of DMSO-treated control at Ymin plateau
Experimental: as §1

[9] = tested on: UACC-62; assay: Anchorage Independent Soft Agar Tumor Growth Assay, UACC-62; type: cell-based; settings: percent of DMSO-treated control at Ymin plateau
Experimental: as §1

[10] = tested on: HCC19377; assay: Anchorage Independent Soft Agar Tumor Growth Assay, HCC19377; type: cell-based; settings: percent of DMSO-treated control at Ymin plateau
Experimental: as §1

[11] = tested on: PC-3; assay: Anchorage Independent Soft Agar Tumor Growth Assay, PC-3; type: cell-based, human; settings: percent of DMSO-treated control at Ymin plateau
Experimental: as §1

[12] = tested on: HCC70; assay: Anchorage Independent Soft Agar Tumor Growth Assay, HCC70; type: cell-based; settings: percent of DMSO-treated control at Ymin plateau
Experimental: as §1

[13] = tested on: MDA-MB-468; assay: Anchorage Independent Soft Agar Tumor Growth Assay, MDA-MB-468; type: cell-based; settings: percent of DMSO-treated control at Ymin plateau
Experimental: as §1

[14] = tested on: HCC1395; assay: Anchorage Independent Soft Agar Tumor Growth Assay, HCC1395; type: cell-based; settings: percent of DMSO-treated control at Ymin plateau
Experimental: as §1

[15] = tested on: U-87MG; assay: Anchorage Independent Soft Agar Tumor Growth Assay, U-87MG; type: cell-based; settings: percent of DMSO-treated control at Ymin plateau
Experimental: as §1

[16] = tested on: BT474; assay: Anchorage Independent Soft Agar Tumor Growth Assay, BT474; type: cell-based; settings: percent of DMSO-treated control at Ymin plateau
Experimental: as §1

[17] = tested on: U251; assay: Anchorage Independent Soft Agar Tumor Growth Assay, U251; type: cell-based; settings: percent of DMSO-treated control at Ymin plateau
Experimental: as §1

[18] = tested on: HCC1954; assay: Anchorage Independent Soft Agar Tumor Growth Assay, HCC1954; type: cell-based; settings: percent of DMSO-treated control at Ymin plateau
Experimental: as §1

[19] = tested on: Colo205; assay: Anchorage Independent Soft Agar Tumor Growth Assay, Colo205; type: cell-based; settings: percent of DMSO-treated control at Ymin plateau
Experimental: as §1

[20] = tested on: HCT-116; assay: Anchorage Independent Soft Agar Tumor Growth Assay, HCT-116; type: cell-based; settings: percent of DMSO-treated control at Ymin plateau
Experimental: as §1

[21] = tested on: SKOV-3; assay: Anchorage Independent Soft Agar Tumor Growth Assay, SKOV-3; type: cell-based; settings: percent of DMSO-treated control at Ymin plateau
Experimental: as §1

[22] = tested on: LOXIMVI; assay: Anchorage Independent Soft Agar Tumor Growth Assay, LOXIMVI; type: cell-based; settings: percent of DMSO-treated control at Ymin plateau
Experimental: as §1

[23] = tested on: pAKT (pAKT/tAKT); assay: Pharmacodynamic effects, pAKT in PC-3 xenograft tumors; type: in vivo, mouse; settings: mice given 3 mg/kg or 10 mg/kg, 1-24 hours
Experimental: Female nude mice (Charles River Laboratories, Wilmington, Del.; strain CD-1-Foxn1, 6 weeks of age) were injected subcutaneously with 2 million PC-3 (human prostate carcinoma) cells mixed 1:1 with Matrigel in the flank. Tumors were allowed to grow for approximately 5 weeks. […] The tumor was excised. Half of each tumor was immediately processed by Medicon (BD Catalog #340592) in 1 mL Meso-Scale Discovery (MSD) lysis buffer with protease inhibitors (Roche complete protease cocktail, cat#04 693 116 001) and phosphatase inhibitors (Sigma, cat #P2850 and P-5726) for 30-60 seconds and transferred to 1.5 mL Eppendorf tubes. Tubes remained on wet ice until they were centrifuged for 10 minutes at 4° C. at maximum speed in a tabletop refrigerated centrifuge. Tumor lysates were serially diluted in 96-well polypropylene plates on wet ice. Lysates (150 μL) were loaded in row 1; rows 2-12 were loaded with 75 μL of complete Meso Scale Discovery (MSD) lysis buffer (supplied in MSD kit; #[…]-3). Samples were serially diluted 2-fold across the plate by sequential transfer of 75 μL through well 11; row 12 contained lysis buffer only. […] Plates were washed as described above, before the addition of 150 μL of MSD read buffer and read immediately on a 6000 MSD plate reader. […] P/T AKT was calculated as shown: (phospho AKT(Ser473) signal)/[(phospho AKT(Ser473) signal)+(total AKT signal)]. […]

For `Cc1c(Cn2c(C)nc3c(C(=O)O)cc(N4CCOCC4)cc32)cccc1C(F)(F)F` [Example 31, 2-methyl-1-{[2-methyl-3-(trifluoromethyl)phenyl]methyl}-6-(4-morpholinyl)-1H-benzimidazole-4-carboxylic acid], the “Ymin ± StDev” value [1] was 52 ± 7, the “Ymin ± StDev” value [2] was 54 ± 14 and the “Ymin ± StDev” value [3] was 20 ± 14. For the same molecule, the “Ymin ± StDev” value [4] was 69 ± 4, the “Ymin ± StDev” value [5] was 83 ± 29 and the “Ymin ± StDev” value [6] was 36 ± 8. The “Ymin ± StDev” value [7] was 55 ± 18, the “Ymin ± StDev” value [8] was 82 ± 2 and the “Ymin ± StDev” value [9] was 76 ± 18. The “Ymin ± StDev” value [10] was 67 ± 8, the “Ymin ± StDev” value [11] was 82 ± 13 and the “Ymin ± StDev” value [12] was 27 ± 8. The “Ymin ± StDev” value [13] was 44 ± 6, the “Ymin ± StDev” value [14] was 26 ± 9 and the “Ymin ± StDev” value [15] was 34 ± 18. For the same molecule, the “Ymin ± StDev” value [16] was 75 ± 3, the “Ymin ± StDev” value [17] was 80 ± 17 and the “Ymin ± StDev” value [18] was >80. The “Ymin ± StDev” value [19] was >80, the “Ymin ± StDev” value [20] was >80 and the “Ymin ± StDev” value [21] was >80. For the same molecule, the “Ymin ± StDev” value [22] was >90 and the “inhibition of the pharmacodynamic marker pAKT (pAKT/tAKT)” value [23] was “dose dependent inhibition”.
